Measurements from patent US10905783B2, “Glucosamine and derivatives thereof in imaging” (priority 2015, dated 2021).

Legend:
4T1 tumor = test: In vivo CEST MRI of 4T1 breast tumors in mice; design: species or system mouse
Method: 4T1 mouse mammary tumor cell lines were obtained from ATCC. Cells were cultured in high glucose DMEM supplemented 5% FBS, 5% NCS, NEAA and antibiotics (100 units/ml penicillin and 100 μg/ml streptomycin) at 37° C. in a humidified atmosphere containing 5% CO2.
BALB/C female mice were purchased and kept in the breeding facility of Life Science School, Tel Aviv University. To induce orthotropic xenograph tumors in the mice. 4T1 cells were injected into the lower left mammary gland of 8-week-old (17-22 gram) animals (10^6 cells in 100 μL saline). The tumors were allowed to grow for 10-14 days, reaching an average tumor volume of 5 mm^3. All experiments with animal models were carried out in compliance with the principles of the National Research Council (NRC) and were approved by the institutional animal care and use committee (IACUC) (#M-15-057).
A Bruker 7 Tesla (T) Biospec scanner with 30 cm bore size was used to scan implanted xenograph mammary tumors of mice before and after administration (i.v., i.p. or p.o.) of glucosamine or its derivatives (the glucose analogues were dissolved in saline, pH 7.4). 4T1 or MCF7 tumor-bearing mice, with an average tumor volume of 2-7 mm^3, were fasted overnight with water access, anesthetized with isoflurane (1-2%) and scanned (without surface coil). Their temperature was maintained at 37° C.
At first, T2 RARE anatomical images (RARE factor-8, TR-3000 ms, TE-11.7 ms) were acquired to identify the slice selection with maximum tumor size. The CEST images were generated as follows: a series of T2 RARE images (RARE factor-1, TR-3000 ms, TE-11.7 ms) were collected from a single 1 mm coronal slice of the abdominal area (acquisition matrix before zero filling 128×64, field of view of 40×40 mm^2) after a 2 s presaturation pulse of B1=2.5 μT (106 Hz) at the hydroxyl proton frequency offset of ±1.2 ppm from the water signal. The CEST images were acquired before and after glucosamine or its derivatives administration in order to identify the baseline. The acquisition continued for more than an hour after treatment.
The mean intensities in the selected region of interest (ROI) of the tumor were used for the % CEST plot.

[1] = cited from earlier work
[2] = system: TSA and B16 cancer models; conditions: cited from earlier work

For `O=C[C@H](O)[C@@H](O)[C@H](O)[C@H](O)CO` [D-glucose], the “time after administration at which the CEST signal decreased dramatically” value (4T1 tumor; D-glucose 1000 mg/kg per os, same animal as glucosamine) was 30 to 40 min, the “duration of the CEST signal” value (4T1 tumor; PO, 4T1 model) was “less than an hour” and the CEST signal (4T1 tumor; oral doses of less than 1 g/kg) was “no significant CEST signal”. The “CEST signal 60 minutes after administering” value (4T1 tumor; same animal, glucosamine at half the dosage of D-glucose) was “no CEST signal was observed”.

In the case of `O=C[C@H](F)[C@@H](O)[C@H](O)[C@H](O)CO` [FDG, 2-fluoro-deoxy-D-glucose], the toxicity ([1]; high concentrations) is given as “toxic at high concentrations”.

For `O=CC[C@@H](O)[C@H](O)[C@H](O)CO` [2-DG, 2-deoxy-D-glucose], the toxic dose ([1]; rats) is listed as 3000 mg/kg.

For `CC(=O)N[C@H]1C(O)O[C@H](CO)[C@@H](O)[C@@H]1O` (stereo partly drawn) [N-Acetyl-D-glucosamine], the CEST contrast [2] is listed as “increase CEST contrast”.
